Data from patent US20160271263A1 (Novo Nordisk A/S, priority 2010, published 2016).
Numbered stars: 1 amine (or outer) side, 2 acyl side, 3 side chain; on linkers, the order of the positions; unused ones are H or OH. Square brackets hold non-standard residues; d marks the D form. Side chains are listed from the residue outwards. Peptide text beside a SMILES is read from it. * marks the point of attachment. C18 diacid = O=C(O)CCCCCCCCCCCCCCCCC(=O)*; γGlu = O=C(O)[C@H](CCC(=O)[*:2])N[*:1]; AEEA = NCCOCCOCC(=O)O

Molecular target: glucagon receptor (Homo sapiens, UniProt P47871)
Sequence (P47871 26-477): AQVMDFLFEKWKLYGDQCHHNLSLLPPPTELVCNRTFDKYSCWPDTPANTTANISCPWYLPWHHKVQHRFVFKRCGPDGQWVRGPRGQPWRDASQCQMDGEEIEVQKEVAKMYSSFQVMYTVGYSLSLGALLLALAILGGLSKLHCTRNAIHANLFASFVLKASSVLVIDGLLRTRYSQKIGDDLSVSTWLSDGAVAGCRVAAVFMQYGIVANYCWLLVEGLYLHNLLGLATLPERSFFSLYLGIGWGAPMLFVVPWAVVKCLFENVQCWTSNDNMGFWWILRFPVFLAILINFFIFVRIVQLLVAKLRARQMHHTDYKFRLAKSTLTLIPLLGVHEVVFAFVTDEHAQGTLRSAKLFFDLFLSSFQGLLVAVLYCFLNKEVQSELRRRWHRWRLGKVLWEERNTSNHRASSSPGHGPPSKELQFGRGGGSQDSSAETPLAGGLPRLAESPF
Experiment: cell-based

| Compound | EC50 [nM] |
| --- | --- |
| CC(C)C[C@H](NC(=O)[C@H](Cc1ccc(O)cc1)NC(=O)[C@H](CCCCN)NC(=O)[C@H](CO)NC(=O)[C@H](Cc1ccc(O)cc1)NC(=O)[C@H](CC(=O)O)NC(=O)[C@H](CO)NC(=O)[C@@H](NC(=O)[C@H](Cc1ccccc1)NC(=O)[C@@H](NC(=O)CNC(=O)[C@H](CCC(N)=O)NC(=O)[C@H](CO)NC(=O)[C@@H](N)Cc1c[nH]cn1)[C@@H](C)O)[C@@H](C)O)C(=O)N[C@@H](CC(=O)O)C(=O)N[C@@H](CO)C(=O)N[C@@H](CCC(N)=O)C(=O)N[C@@H](CCCNC(=N)N)C(=O)N[C@@H](C)C(=O)N[C@@H](CCC(N)=O)C(=O)N[C@@H](CC(=O)O)C(=O)N[C@@H](Cc1ccccc1)C(=O)N[C@H](C(=O)N[C@@H](CCCCNC(=O)COCCOCCNC(=O)COCCOCCNC(=O)CC[C@H](NC(=O)CCCCCCCCCCCCCCCCC(=O)O)C(=O)O)C(=O)N[C@@H](Cc1c[nH]c2ccccc12)C(=O)N[C@@H](CC(C)C)C(=O)N[C@H](C(=O)N[C@@H](CCCCN)C(=O)N[C@H](C(=O)NCC(=O)N1CCC[C@H]1C(N)=O)[C@@H](C)O)C(C)C)C(C)C [Example 33, (N^ε24-([2-[2-[2-[[2-[2-[2-[[(4S)-5-hydroxy-4-[(18-hydroxy-18-oxooctadecanoyl)amino]-5-oxopentanoyl]amino]ethoxy]ethoxy]acetyl]amino]ethoxy]ethoxy]acetyl])[Gln^17, Lys^24, Val^27, Lys^28] Glucagonyl)-Gly-Pro amide] (H-HSQGTFTSDYSKYLDSQRAQDFVK([AEEA-AEEA-γGlu-C18 diacid])WLVKTGP-NH2; N-terminus assumed) | 0.942 |
| CC(C)C[C@H](NC(=O)[C@H](Cc1ccc(O)cc1)NC(=O)[C@H](CCCCN)NC(=O)[C@H](CO)NC(=O)[C@H](Cc1ccc(O)cc1)NC(=O)[C@H](CC(=O)O)NC(=O)[C@H](CO)NC(=O)[C@@H](NC(=O)[C@H](Cc1ccccc1)NC(=O)[C@@H](NC(=O)CNC(=O)[C@H](CCC(N)=O)NC(=O)[C@H](CO)NC(=O)[C@@H](N)Cc1c[nH]cn1)[C@@H](C)O)[C@@H](C)O)C(=O)N[C@@H](CC(=O)O)C(=O)N[C@@H](CO)C(=O)N[C@@H](CCCCN)C(=O)N[C@@H](CCCNC(=N)N)C(=O)N[C@@H](C)C(=O)N[C@@H](CCC(N)=O)C(=O)N[C@@H](CCC(=O)O)C(=O)N[C@@H](Cc1ccccc1)C(=O)N[C@H](C(=O)N[C@@H](CCCCNC(=O)COCCOCCNC(=O)COCCOCCNC(=O)CC[C@H](NC(=O)CCCCCCCCCCCCCCCCC(=O)O)C(=O)O)C(=O)N[C@@H](Cc1c[nH]c2ccccc12)C(=O)N[C@@H](CC(C)C)C(=O)N[C@@H](CC(C)C)C(=O)N[C@@H](CO)C(=O)N[C@H](C(N)=O)[C@@H](C)O)C(C)C [Example 40, N^ε24-([2-[2-[2-[[2-[2-[2-[[(4S)-5-hydroxy-4-[(18-hydroxy-18-oxooctadecanoyl)amino]-5-oxopentanoyl]amino]ethoxy]ethoxy]acetyl]amino]ethoxy]ethoxy]acetyl]) [Lys^17, Glu^21,Lys^24,Leu^27,Ser^28]Glucagon peptide amide] (H-HSQGTFTSDYSKYLDSKRAQEFVK([AEEA-AEEA-γGlu-C18 diacid])WLLST-NH2; N-terminus assumed) | 0.007 |
| CC(C)C[C@H](NC(=O)[C@H](Cc1ccc(O)cc1)NC(=O)[C@H](CCCCN)NC(=O)[C@H](CO)NC(=O)[C@H](Cc1ccc(O)cc1)NC(=O)[C@H](CC(=O)O)NC(=O)[C@H](CO)NC(=O)[C@@H](NC(=O)[C@H](Cc1ccccc1)NC(=O)[C@@H](NC(=O)CNC(=O)[C@H](CCC(N)=O)NC(=O)[C@H](CO)NC(=O)[C@@H](N)Cc1c[nH]cn1)[C@@H](C)O)[C@@H](C)O)C(=O)N[C@@H](CC(=O)O)C(=O)N[C@@H](CO)C(=O)N[C@@H](CCCNC(=N)N)C(=O)N[C@@H](CCCNC(=N)N)C(=O)N[C@@H](C)C(=O)N[C@@H](CCC(N)=O)C(=O)N[C@@H](CC(=O)O)C(=O)N[C@@H](Cc1ccccc1)C(=O)N[C@H](C(=O)N[C@@H](CCC(N)=O)C(=O)N[C@@H](Cc1c[nH]c2ccccc12)C(=O)N[C@@H](CC(C)C)C(=O)N[C@@H](CC(C)C)C(=O)N[C@@H](CCCCNC(=O)CC[C@H](NC(=O)COCCOCCNC(=O)COCCOCCNC(=O)CC[C@H](NC(=O)CC[C@H](NC(=O)CCCCCCCCCCCCCCCCC(=O)O)C(=O)O)C(=O)O)C(=O)O)C(=O)N[C@H](C(=O)O)[C@@H](C)O)C(C)C [Example 66, N^ε28-[(4S)-4-carboxy-4-[[2-[2-[2-[[2-[2-[2-[[(4S)-4-carboxy-4-[[(4S)-4-carboxy-4-(17-carboxyheptadecanoylamino)butanoyl]amino]butanoyl]amino]ethoxy]ethoxy]acetyl]amino]ethoxy]ethoxy]acetyl]amino]butanoyl]-[Leu^27,Lys^28]-Glucagon] | 0.093 |
| CC(C)C[C@H](NC(=O)[C@H](Cc1ccc(O)cc1)NC(=O)[C@H](CCCCN)NC(=O)[C@H](CO)NC(=O)[C@H](Cc1ccc(O)cc1)NC(=O)[C@H](CC(=O)O)NC(=O)[C@H](CO)NC(=O)[C@@H](NC(=O)[C@H](Cc1ccccc1)NC(=O)[C@@H](NC(=O)CNC(=O)[C@H](CCC(N)=O)NC(=O)[C@H](CO)NC(=O)[C@@H](N)Cc1c[nH]cn1)[C@@H](C)O)[C@@H](C)O)C(=O)N[C@@H](CC(=O)O)C(=O)N[C@@H](CCCCNC(=O)COCCOCCNC(=O)COCCOCCNC(=O)CC[C@H](NC(=O)CCCCCCCCCCCCCCCCC(=O)O)C(=O)O)C(=O)N[C@@H](CCCCN)C(=O)N[C@@H](CCCNC(=N)N)C(=O)N[C@@H](C)C(=O)N[C@@H](CCC(N)=O)C(=O)N[C@@H](CCC(=O)O)C(=O)N[C@@H](Cc1ccccc1)C(=O)N[C@H](C(=O)N[C@@H](CCC(N)=O)C(=O)N[C@@H](Cc1c[nH]c2ccccc12)C(=O)N[C@@H](CC(C)C)C(=O)N[C@@H](CC(C)C)C(=O)N[C@@H](CC(N)=O)C(=O)N[C@H](C(=O)O)[C@@H](C)O)C(C)C [Example 5] (H-HSQGTFTSDYSKYLDK([AEEA-AEEA-γGlu-C18 diacid])KRAQEFVQWLLNT-OH; N-terminus and C-terminus assumed) | 0.02 |

Continued, values first:

| EC50 [nM] | Compound |
| --- | --- |
| 0.149 | CC(C)C[C@H](NC(=O)[C@H](Cc1ccc(O)cc1)NC(=O)[C@H](CCCCN)NC(=O)[C@H](CO)NC(=O)[C@H](Cc1ccc(O)cc1)NC(=O)[C@H](CC(=O)O)NC(=O)[C@H](CO)NC(=O)[C@@H](NC(=O)[C@H](Cc1ccccc1)NC(=O)[C@@H](NC(=O)CNC(=O)[C@H](CCC(N)=O)NC(=O)[C@@H](CO)NC(=O)[C@@H](N)Cc1c[nH]cn1)[C@@H](C)O)[C@@H](C)O)C(=O)N[C@@H](CC(=O)O)C(=O)N[C@@H](CCC(=O)O)C(=O)N[C@@H](CCCNC(=N)N)C(=O)N[C@@H](CCCNC(=N)N)C(=O)N[C@@H](C)C(=O)N[C@@H](CCC(N)=O)C(=O)N[C@@H](CC(=O)O)C(=O)N[C@@H](Cc1ccccc1)C(=O)N[C@H](C(=O)N[C@@H](CCCCNC(=O)COCCOCCNC(=O)COCCOCCNC(=O)CC[C@H](NC(=O)CCCCCCCCCCCCCCCCC(=O)O)C(=O)O)C(=O)N[C@@H](Cc1c[nH]c2ccccc12)C(=O)N[C@@H](CC(C)C)C(=O)N[C@@H](CC(C)C)C(=O)N[C@@H](CC(N)=O)C(=O)N[C@H](C(=O)O)[C@@H](C)O)C(C)C [Example 2] (H-H[dS]QGTFTSDYSKYLDERRAQDFVK([AEEA-AEEA-γGlu-C18 diacid])WLLNT-OH; N-terminus and C-terminus assumed) |
| 0.015 | CC(C)C[C@H](NC(=O)[C@H](Cc1ccc(O)cc1)NC(=O)[C@H](CCCCN)NC(=O)[C@H](CO)NC(=O)[C@H](Cc1ccc(O)cc1)NC(=O)[C@H](CC(=O)O)NC(=O)[C@H](CO)NC(=O)[C@@H](NC(=O)[C@H](Cc1ccccc1)NC(=O)[C@@H](NC(=O)CNC(=O)[C@H](CCC(N)=O)NC(=O)[C@H](CO)NC(=O)[C@@H](N)Cc1c[nH]cn1)[C@@H](C)O)[C@@H](C)O)C(=O)N[C@@H](CC(=O)O)C(=O)N[C@@H](CCC(=O)O)C(=O)N[C@@H](CCCCN)C(=O)N[C@@H](CCCNC(=N)N)C(=O)N[C@@H](C)C(=O)N[C@@H](CCC(N)=O)C(=O)N[C@@H](CCC(=O)O)C(=O)N[C@@H](Cc1ccccc1)C(=O)N[C@H](C(=O)N[C@@H](CCCCNC(=O)COCCOCCNC(=O)COCCOCCNC(=O)CC[C@H](NC(=O)CCCCCCCCCCCCCCCCC(=O)O)C(=O)O)C(=O)N[C@@H](Cc1c[nH]c2ccccc12)C(=O)N[C@@H](CC(C)C)C(=O)N[C@@H](CC(C)C)C(=O)N[C@@H](CC(N)=O)C(=O)N[C@H](C(N)=O)[C@@H](C)O)C(C)C [Example 38, N^ε24-([2-[2-[2-[[2-[2-[2-[[(4S)-5-hydroxy-4-[(18-hydroxy-18-oxooctadecanoyl)amino]-5-oxopentanoyl]amino]ethoxy]ethoxy]acetyl]amino]ethoxy]ethoxy]acetyl])[Glu^16, Lys^17, Glu^21, Lys^24,Leu^27] Glucagon peptide amide] (H-HSQGTFTSDYSKYLDEKRAQEFVK([AEEA-AEEA-γGlu-C18 diacid])WLLNT-NH2; N-terminus assumed) |
| 0.044 | CC(C)C[C@H](NC(=O)[C@H](Cc1ccc(O)cc1)NC(=O)[C@H](CCCCN)NC(=O)[C@H](CO)NC(=O)[C@H](Cc1ccc(O)cc1)NC(=O)[C@H](CC(=O)O)NC(=O)[C@H](CO)NC(=O)[C@@H](NC(=O)[C@H](Cc1ccccc1)NC(=O)[C@@H](NC(=O)[C@@H](Cc1ccccc1)NC(=O)[C@H](CCC(N)=O)NC(=O)[C@H](CO)NC(=O)[C@@H](N)Cc1c[nH]cn1)[C@@H](C)O)[C@@H](C)O)C(=O)N[C@@H](CC(=O)O)C(=O)N[C@@H](CO)C(=O)N[C@@H](CCCNC(=N)N)C(=O)N[C@@H](CCCNC(=N)N)C(=O)N[C@@H](C)C(=O)N[C@@H](CCC(N)=O)C(=O)N[C@@H](CC(=O)O)C(=O)N[C@@H](Cc1ccccc1)C(=O)N[C@H](C(=O)N[C@@H](CCCCNC(=O)CC[C@H](NC(=O)CC[C@H](NC(=O)COCCOCCNC(=O)COCCOCCNC(=O)CC[C@H](NC(=O)CCCCCCCCCCCCCCCCC(=O)O)C(=O)O)C(=O)O)C(=O)O)C(=O)N[C@@H](Cc1c[nH]c2ccccc12)C(=O)N[C@@H](CC(C)C)C(=O)N[C@@H](CC(C)C)C(=O)N[C@@H](CO)C(=O)N[C@H](C(=O)O)[C@@H](C)O)C(C)C [Example 99, N^ε24-[(4S)-4-carboxy-4-[[(4S)-4-carboxy-4-[[2-[2-[2-[[2-[2-[2-[[(4S)-4-carboxy-4-(17-carboxyheptadecanoylamino)butanoyl]amino]ethoxy]ethoxy]acetyl]amino]ethoxy]ethoxy]acetyl]amino]butanoyl]amino]butanoyl]-[D-Phe4,Lys24,Leu27,Ser28]-Glucagon] (H-HSQ[dF]TFTSDYSKYLDSRRAQDFVK([γGlu-γGlu-AEEA-AEEA-γGlu-C18 diacid])WLLST-OH) |
